Experimental data reported in patent US4026888A, “Certain derivatives of particular 3-thiolated cephalosporins” (priority 1976, dated 1977).
Values after ≈ are worked out from the molar mass of the structure shown. Like-named read-outs stand apart in the source and are kept apart here.

Legend:
Str. pyogenes A9604 = assay: Antibiotic activity in nutrient broth (MIC); format: cell-based; conditions: 45% AAB + 5% serum + 50% broth, derivatives adjusted for BL-S640 content
Text: (§1) Antibiotic Activity In Nutrient Broth
* 45% AAB+ 5% serum+ 50% broth listed above.
(§2) ** Dilution of overnight broth culture.
(§3) Antibiotic Spectrum Nutrient Broth
* 45% AAB + 5% serum + 50% broth
(§4) Antibiotic Spectrum in Nutrient Broth
*45% AAB + 5% serum + 50% broth listed above.

P. mirabilis A9707 = assay: Oral PD50 in mice; format: in vivo; conditions: Proteus mirabilis, mice treated at 1 and 3.5 hours post-challenge
Description: (§5) Comparative Oral PD50 Values of
(§6) BL-S640 Derivatives in Mice
(§7) *Mice were treated at 1 and 3.5 hours post-challenge.

S. pyogenes A9604 = assay: Oral PD50 in mice; format: in vivo; conditions: Streptococcus pyogenes, mice treated at 1 and 3.5 hours post-challenge
Description: as §5, §6, §7

E. coli A15119 = assay: Oral PD50 in mice; format: in vivo; conditions: Escherichia coli, A15119, po, 3.5 h, read-out: PD50
Description: as §5, §6, §7

K. pneumoniae A9977 [1] = assay: Oral PD50 in mice; format: in vivo; conditions: Klebsiella pneumoniae, A9977; oral; mice treated at 1 and 3.5 hours post-challenge; read-out: PD50
Description: as §5, §6, §7

P. mirabilis A9900 [2] = assay: Oral PD50 in mice; format: in vivo; conditions: oral, mice treated at 1 and 3.5 hours post-challenge
[3] = Mouse blood levels after oral administration; format: in vivo
Description: Mouse Blood Levels After Oral
Administration Of 100 mg./kg. Body Weight
The compounds were prepared in
Tween - carboxymethylcellulose
and 8 mice were used for each
Mouse Blood Levels After PO
Administration of 100 mg./kg. Body Weight
The compounds were prepared in Tween-CMC. BL-S640
The compounds were prepared in Tween-CMC. Values are the average of two

P. mirabilis A9900 [4] = assay: IM PD50 in mice; format: in vivo; conditions: Proteus mirabilis
Text: Comparative IM PD50 Values of
as §6

Ent. cloacae A9656 = assay: Antibiotic activity in nutrient broth (MIC); format: cell-based; conditions: Enterobacter cloacae, derivatives adjusted for BL-S640 content
Text: as §1, §2, §3, §4

K. pneumoniae A15130 = assay: Antibiotic activity in nutrient broth (MIC); format: cell-based; conditions: derivatives adjusted for BL-S640 content
Text: as §1, §2, §3, §4

Ser. marcescens A20019 = assay: Antibiotic activity in nutrient broth (MIC); format: cell-based; conditions: Serratia marcescens, derivatives adjusted for BL-S640 content
Text: as §1, §2, §3, §4

Sal. enteritidis A9531 = assay: Antibiotic activity in nutrient broth (MIC); format: cell-based; conditions: inoculum 10^-4, derivatives adjusted for BL-S640 content
Text: as §1, §2, §3, §4

S. aureus Smith A9537 = assay: Antibiotic activity in nutrient broth (MIC); format: cell-based; conditions: + 50% serum, derivatives adjusted for BL-S640 content
Text: as §1, §2, §3, §4

Pr. mirabilis A9900 = assay: Antibiotic activity in nutrient broth (MIC); format: cell-based; conditions: Proteus mirabilis, inoculum 10^-4, derivatives adjusted for BL-S640 content
Text: as §1, §2, §3, §4

K. pneumoniae A9977 [5] = assay: Antibiotic activity in nutrient broth (MIC); format: cell-based; conditions: Klebsiella pneumoniae, inoculum 10^-4, derivatives adjusted for BL-S640 content, read-out: MIC
Text: as §1, §2, §3, §4

Ent. cloacae A9657 = assay: Antibiotic activity in nutrient broth (MIC); format: cell-based; conditions: derivatives adjusted for BL-S640 content
Text: as §1, §2, §3, §4

[6] = Urinary recovery after IM administration to rats; format: in vivo; conditions: rat, urine, 50 mg/kg, IM 50 mg./kg., read-out: Urinary Recovery, Percentage of Administered Dose Recovered
Description: Urinary Recovery After IM
Administration of 50 and 10 mg./kg. to Rats
The compounds were prepared in 0.01% phosphate buffer. BL-S640 was used as
Urinary Recovery after IM
Administration of 50 mg./kg. to Rats
(§8) The compounds were prepared in 0.01% phosphate buffer.

[7] = Mouse blood levels after intramuscular administration; format: in vivo; conditions: IM 10 mg./kg.
Description: Mouse Blood Levels After Intramuscular Administration
of 10 mg./kg. Body Weight
The compounds were dissolved in 0.01% phosphate buffer.
Mouse Blood Levels After IM
Administration of 10 mg./kg. Body Weight
The compounds were prepared in 0.01% phosphate
as §8

[8] = mouse, blood, im, 10 mg/kg, Example 3, average of 3 experiments, read-out: Blood Levels
[9] = mouse, blood, im, 10 mg/kg, Table III, 0.01% phosphate buffer, read-out: Mouse Blood Levels

Compound: N[C@@H](C(=O)N[C@@H]1C(=O)N2C(C(=O)O)=C(CSc3cnn[nH]3)CS[C@H]12)c1ccc(O)cc1 [BL-S640, 7-[D-α-amino-α-(p-hydroxyphenyl)acetamido]-3-(1,2,3-triazol-5-ylthiomethyl)-3-cephem-4-carboxylic acid, reference compound]
- MIC (Str. pyogenes A9604; Streptococcus pyogenes, A9604, inoculum 10^-3, read-out: MIC): 0.06 µg/mL
- MIC (Str. pyogenes A9604; inoculum 10^-3): 0.03 µg/mL
- ED50 (P. mirabilis A9707): 2.4 mg/kg
- ED50 (S. pyogenes A9604): 0.4 mg/kg
- ED50 (E. coli A15119; oral, mice treated at 1 and 3.5 hours post-challenge): 4.1 mg/kg
- ED50 (E. coli A15119): 1.4 mg/kg
- ED50 (K. pneumoniae A9977 [1]): 1.6 mg/kg
- ED50 (P. mirabilis A9900 [2]; Proteus mirabilis, A9900, po, 3.5 h, read-out: PD50): 7.2 mg/kg
- PD50 (P. mirabilis A9900 [2]): 9.6 mg./kg./treatment
- Blood Levels ([3]; Example 3, PO 100 mg./kg., 1 hr, Tween-CMC, average of two experiments): 42400 ng/mL
- Blood Level ([3]; Table II, oral 100 mg./kg., 0.5 hr, Tween-carboxymethylcellulose, 8 mice, 100 mg/kg, 30 min): 57400 ng/mL
- Blood Level ([3]; Table II, oral 100 mg./kg., 1 hr, Tween-carboxymethylcellulose, 8 mice, 100 mg/kg, 60 min): 47000 ng/mL
- Blood Level ([3]; Table II, oral 100 mg./kg., 2 hr, Tween-carboxymethylcellulose, 8 mice, 100 mg/kg, 120 min): 29500 ng/mL
- Blood Level ([3]; Table II, oral 100 mg./kg., 3.5 hr, Tween-carboxymethylcellulose, 8 mice, 100 mg/kg, 210 min): 10900 ng/mL
- concentration at 0.5 h ([3]; mouse, blood, po, 100 mg/kg, Example 3, PO 100 mg./kg., 0.5 hr, Tween-CMC, average of two experiments, read-out: Blood Levels): 48700 ng/mL
- concentration at 2 h ([3]; mouse, blood, po, 100 mg/kg, Example 3, PO 100 mg./kg., 2 hr, Tween-CMC, average of two experiments, read-out: Blood Levels): 24000 ng/mL
- concentration at 3.5 h ([3]; mouse, blood, po, 100 mg/kg, Example 3, PO 100 mg./kg., 3.5 hr, Tween-CMC, average of two experiments, read-out: Blood Levels): 10100 ng/mL
- concentration at 0.5 h ([3]; mouse, blood, po, 100 mg/kg, Table II, oral 100 mg./kg., 0.5 hr, Tween-carboxymethylcellulose, 8 mice, read-out: Blood Level): 50500 ng/mL
- concentration at 1 h ([3]; mouse, blood, po, 100 mg/kg, Table II, oral 100 mg./kg., 1 hr, Tween-carboxymethylcellulose, 8 mice, read-out: Blood Level): 39000 ng/mL
- concentration at 2 h ([3]; mouse, blood, po, 100 mg/kg, Table II, oral 100 mg./kg., 2 hr, Tween-carboxymethylcellulose, 8 mice, read-out: Blood Level): 24500 ng/mL
- concentration at 3.5 h ([3]; mouse, blood, po, 100 mg/kg, Table II, oral 100 mg./kg., 3.5 hr, Tween-carboxymethylcellulose, 8 mice, read-out: Blood Level): 9600 ng/mL
- ED50 (P. mirabilis A9900 [4]): 1.6 mg/kg
- MIC (Ent. cloacae A9656; A9656, inoculum 10^-4): > 125 µg/mL
- MIC (Ent. cloacae A9656; A9656, inoculum 10^-4, read-out: MIC): 63 µg/mL (≈ 136 µM)
- MIC (K. pneumoniae A15130; Klebsiella pneumoniae, A15130, inoculum 10^-4, read-out: MIC): 2 µg/mL (≈ 4.32 µM)
- MIC (K. pneumoniae A15130; inoculum 10^-4): 1 µg/mL (≈ 2.16 µM)
- MIC (Ser. marcescens A20019; A20019, inoculum 10^-4): > 125 µg/mL
- MIC (Ser. marcescens A20019; A20019, inoculum 10^-4, read-out: MIC): 63 µg/mL (≈ 136 µM)
- MIC (Sal. enteritidis A9531; Salmonella enterica, ENTERITIDIS, read-out: MIC): 0.25 µg/mL (≈ 0.541 µM)
- MIC (Sal. enteritidis A9531): 0.13 µg/mL (≈ 0.281 µM)
- MIC (S. aureus Smith A9537; Staphylococcus aureus, SMITHA9537, inoculum 10^-4, read-out: MIC): 4 µg/mL
- MIC (S. aureus Smith A9537; inoculum 10^-4): 2 µg/mL
- MIC (Pr. mirabilis A9900): 0.5 µg/mL (≈ 1.08 µM)
- MIC (K. pneumoniae A9977 [5]): 0.5 µg/mL (≈ 1.08 µM)
- MIC (Ent. cloacae A9657; Enterobacter cloacae, A9657, inoculum 10^-4, read-out: MIC): 1 µg/mL (≈ 2.16 µM)
- MIC (Ent. cloacae A9657; inoculum 10^-4): 0.5 µg/mL (≈ 1.08 µM)
- dose excreted at 6 h ([6]; 0-6 hr): 44.2%
- dose excreted at 24 h ([6]; 0-24 hr): 47.5%
- dose excreted at 24 h ([6]; 6-24 hr): 3.3%
- Blood Levels ([7]; Example 2, 1 hr, 0.01% phosphate buffer, 16 or 32 mice): 9500 ng/mL
- concentration at 0.25 h [7, 8]: 12700 ng/mL
- concentration at 0.5 h ([7]; mouse, blood, im, 10 mg/kg, Example 3, 0.5 hr, average of 3 experiments, read-out: Blood Levels): 11500 ng/mL
- concentration at 1 h ([7]; mouse, blood, im, 10 mg/kg, Example 3, 1 hr, average of 3 experiments, read-out: Blood Levels): 8000 ng/mL
- concentration at 1.5 h [7, 8]: 5700 ng/mL
- concentration at 0.25 h [7, 9]: 16300 ng/mL
- concentration at 1.5 h [7, 9]: 6300 ng/mL
